Measured values published in patent publication US10208033B2, “β-carboline, dihydro-β-carboline and tetrahydro-β-carboline alkaloid derivatives and preparation methods same and use in aspects of preventing and treating plant viruses, fungicides and insecticides” (NANKAI UNIVERSITY, priority 2013, dated 2019).

Legend:
[1] = tested on: tobacco mosaic virus (TMV); test: Anti-TMV in vitro effect (half-leaf soaking); type: cell-based, tobacco mosaic virus (host Nicotiana tabacum L.cv.Xanthi NN)
[2] = tested on: tobacco mosaic virus (TMV); test: Anti-TMV in vivo inactivation; design: species or system tobacco mosaic virus (host Nicotiana tabacum L.cv.Xanthi NN)
[3] = tested on: tobacco mosaic virus (TMV); test: Anti-TMV in vivo therapeutic effect; design: species or system tobacco mosaic virus (host Nicotiana tabacum L.cv.Xanthi NN)
[4] = tested on: tobacco mosaic virus (TMV); test: Anti-TMV in vivo protective effect; design: species or system tobacco mosaic virus (host Nicotiana tabacum L.cv.Xanthi NN)
[5] = tested on: cucumber fusarium wilt; test: Fungicidal (bactericidal) activity in vitro, PDA colony diameter; type: cell-based; conditions: 50 mg/kg
[6] = tested on: Cercospora arachidicola; test: as above; type: cell-based; conditions: 50 mg/kg
[7] = tested on: Macrophoma kawatsukai; test: as above; type: cell-based; conditions: 50 mg/kg
[8] = tested on: Alternaria solani; test: as above; type: cell-based; conditions: 50 mg/kg
[9] = tested on: Fusarium graminearumt; test: microbe, parasite or virus in culture; type: cell-based; conditions: 50 mg/kg
[10] = tested on: potato late blight; test: microbe, parasite or virus in culture; type: cell-based
[11] = tested on: Sclerotinia scleotiorum; test: Fungicidal (bactericidal) activity in vitro, PDA colony diameter; type: cell-based; conditions: 50 mg/kg
[12] = tested on: Botrytis cinerea; test: as above; type: cell-based; conditions: 50 mg/kg
[13] = tested on: Rhizoctonia solani; test: as above; type: cell-based; conditions: 50 mg/kg
[14] = tested on: Phytophthora capsici; test: as above; type: cell-based; conditions: 50 mg/kg
[15] = tested on: Fusarium fujikuroi; test: as above; type: cell-based; conditions: 50 mg/kg
[16] = tested on: Rhizoctonia cereali; test: as above; type: cell-based; conditions: 50 mg/kg
[17] = tested on: Bipolaria maydis; test: organism not typed; type: cell-based; conditions: 50 mg/kg
[18] = tested on: Colletotrichum orbiculare; test: Fungicidal (bactericidal) activity in vitro, PDA colony diameter; type: cell-based; conditions: 50 mg/kg
[19] = tested on: armyworms; type: in vivo; conditions: concentration 600 mg/kg
[20] = tested on: cotton bollworms; test: whole plant or invertebrate; conditions: for Cotton bollworm Mortality (%): concentration 600 mg/kg
Description: Experimental method of cotton bollworms: feed and drug mixing method: measure 3 mL of prepared solution and add it to about 27 g of newly prepared feed, thereby obtaining needed concentration through dilution by 10 times.

[21] = tested on: mosquito larvae; test: whole plant or invertebrate; conditions: 24 h; for Mosquito larvae Mortality (%): concentration 10 mg/kg
Outline: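 Compound dissolved in acetone (or other solvent) to a 1000 ppm stock and diluted in water to 5 ppm. Ten Culex pipiens pallens larvae at the start of the fourth instar, laboratory-reared, added per beaker; solvent-only aqueous control.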

[22] = tested on: corn borers; conditions: concentration 600 mg/kg
[23] = tested on: corn borers; test: whole plant or invertebrate; conditions: read-out: Corn borer Mortality (%)

| Structure (SMILES) | Relative inhibition rate (%) In vitro activity ([1]; treatment dose 100 μg/mL) [%] | Relative inhibition rate (%) In vitro activity ([1]; treatment dose 500 μg/mL) [%] | Relative inhibition rate (%) In vivo inactivation ([2]; treatment dose 100 μg/mL) [%] | Relative inhibition rate (%) In vivo inactivation ([2]; treatment dose 500 μg/mL) [%] | Relative inhibition rate (%) In vivo therapy ([3]; treatment dose 100 μg/mL) [%] | Relative inhibition rate (%) In vivo therapy ([3]; treatment dose 500 μg/mL) [%] | Relative inhibition rate (%) In vivo protection ([4]; treatment dose 100 μg/mL) [%] | Relative inhibition rate (%) In vivo protection ([4]; treatment dose 500 μg/mL) [%] | Bactericidal activity (%) Cucumber fusarium wilt [5] [%] | Bactericidal activity (%) Cercospora arachidicola [6] [%] | Bactericidal activity (%) Macrophoma kawatsukai [7] [%] | Bactericidal activity (%) Alternaria solani [8] [%] | Bactericidal activity (%) Fusarium graminearumt [9] [%] | Bactericidal activity (%) potato late blight [10] [%] | Bactericidal activity (%) Sclerotinia scleotiorum [11] [%] | Bactericidal activity (%) Botrytis cinerea [12] [%] | Bactericidal activity (%) Rhizoctonia solani [13] [%] | Bactericidal activity (%) Phytophthora capsici [14] [%] | Bactericidal activity (%) Fusarium fujikuroi [15] [%] | Armyworm Mortality (%) [19] [%] | other results |
| --- | --- | --- | --- | --- | --- | --- | --- | --- | --- | --- | --- | --- | --- | --- | --- | --- | --- | --- | --- | --- | --- |
| Cc1nnsc1C(=O)NNC(=O)[C@@H]1Cc2c([nH]c3ccccc23)[C@H](C)N1 [Id-2, 4-methyl-N′-((1S, 3S)-1-methyl-2,3,4,9-tetrahydropyridino [3,4-b]indol-3-triformyl)-1,2,3-thiadiazole-5-formylhydrazine] | 13.5 | 41.2 | 9.8 | 42.9 | 19.1 | 48.8 | 16 | 51.3 | 4.5 | 18.2 | 39.4 | 14.3 | 53.8 | 30.4 | 19.2 | 61.1 | 0.0 | 6.1 | 29.4 | 40 | Bactericidal activity (%) Rhizoctonia cereali [16]: 45.9%; Bactericidal activity (%) Bipolaria maydis [17]: 28.0%; Bactericidal activity (%) Colletotrichum orbiculare [18]: 24.0%; Cotton bollworm Mortality (%) [20]: 40%; Mosquito larvae Mortality (%) [21]: 80%; Corn borer Mortality (%) [22]: 40% |
| C[C@@H]1N[C@H](C(=O)NNC(=O)c2ccncc2)Cc2c1[nH]c1ccccc21 [Id-3, (1S, 3S)—N′-isonicotinoyl-1-methyl-2,3,4,9-tetrahydropyridino [3,4-b] indol-3-formylhydrazine] | 6.4 | 39.2 | 17.9 | 45.3 | 11.6 | 45 | 14.2 | 42.1 | 13.6 | 27.3 | 39.4 | 14.3 | 53.8 | 26.1 | 3.8 | 55.6 | 15.3 | 15.2 | 29.4 | 25 | Bactericidal activity (%) Rhizoctonia cereali [16]: 18.9%; Bactericidal activity (%) Bipolaria maydis [17]: 16.0%; Bactericidal activity (%) Colletotrichum orbiculare [18]: 36.0%; Cotton bollworm Mortality (%) [20]: 40%; Mosquito larvae Mortality (%) [21]: 50%; Corn borer Mortality (%) [22]: 25% |
| C[C@@H]1N[C@H](C(=O)NNC(=O)c2ccccc2)Cc2c1[nH]c1ccccc21 [Id-4, (1S, 3S)—N′-benzoyl-1-methyl-2,3,4,9-tetrahydropyridino [3,4-b] indol-3-formylhydrazine] | 0 | 36.9 | 0 | 37.5 | 0 | 34.2 | 12.1 | 40 | 13.6 | 27.3 | 45.5 | 33.3 | 38.5 | 17.4 | 7.7 | 55.6 | 5.6 | 18.2 | 29.4 | 10 | Bactericidal activity (%) Rhizoctonia cereali [16]: 35.1%; Bactericidal activity (%) Bipolaria maydis [17]: 28.0%; Bactericidal activity (%) Colletotrichum orbiculare [18]: 32.0%; Cotton bollworm Mortality (%) [20]: 30%; Mosquito larvae Mortality (%) [21]: 25%; Corn borer Mortality (%) [22]: 15% |
| CCCCCC(=O)NNC(=O)[C@@H]1Cc2c([nH]c3ccccc23)[C@H](C)N1 [Id-5, (1S, 3S)—N′—N-Hexanoyl-1-methyl-2,3,4,9-tetrahydropyridino [3,4-b] indol-3-formylhydrazine] | 0 | 32.1 | 0 | 31.5 | 0 | 27.3 | 0 | 30.9 | 22.7 | 45.5 | 63.6 | 23.8 | 46.2 | 26.1 | 26.9 | 66.7 | 1.4 | 21.2 | 29.4 | 5 | Bactericidal activity (%) Rhizoctonia cereali [16]: 29.7%; Bactericidal activity (%) Bipolaria maydis [17]: 32.0%; Bactericidal activity (%) Colletotrichum orbiculare [18]: 28.0%; Cotton bollworm Mortality (%) [20]: 30%; Mosquito larvae Mortality (%) [21]: 10%; Corn borer Mortality (%) [22]: 25% |
| COc1ccc2c3c([nH]c2c1)C(C)NCC3 (centres unmarked) [Tetrahydroharmine] |  |  |  |  |  |  |  |  |  |  |  |  |  |  |  |  |  |  |  | 0 | inhibition at 100 µg/mL ([1]; Tobacco mosaic virus, treatment dose 100 μg/mL, read-out: Relative inhibition rate (%) In vitro activity): 28.7%; inhibition at 500 µg/mL ([1]; Tobacco mosaic virus, treatment dose 500 μg/mL, read-out: Relative inhibition rate (%) In vitro activity): 58.2%; inhibition at 100 µg/mL ([2]; Tobacco mosaic virus, treatment dose 100 μg/mL, read-out: Relative inhibition rate (%) In vivo inactivation): 26.4%; inhibition at 500 µg/mL ([2]; Tobacco mosaic virus, treatment dose 500 μg/mL, read-out: Relative inhibition rate (%) In vivo inactivation): 59.8%; inhibition at 100 µg/mL ([3]; Tobacco mosaic virus, treatment dose 100 μg/mL, read-out: Relative inhibition rate (%) In vivo therapy): 27.3%; inhibition at 500 µg/mL ([3]; Tobacco mosaic virus, treatment dose 500 μg/mL, read-out: Relative inhibition rate (%) In vivo therapy): 55.5%; inhibition at 100 µg/mL ([4]; Tobacco mosaic virus, treatment dose 100 μg/mL, read-out: Relative inhibition rate (%) In vivo protection): 24.2%; inhibition at 500 µg/mL ([4]; Tobacco mosaic virus, treatment dose 500 μg/mL, read-out: Relative inhibition rate (%) In vivo protection): 54.6%; mortality at 600 mg/kg ([20]; Helicoverpa armigera, in Gossypium hirsutum, read-out: Cotton bollworm Mortality (%)): 10%; mortality at 10 mg/kg ([21]; Culex pipiens, read-out: Mosquito larvae Mortality (%)): 15%; mortality at 600 mg/kg [23]: 0% |
